Reference: PubChem BioAssay (NCI)
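Assay format: 96-well plates, 48-hour exposure. TGI: total growth inhibition.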

Tests used:
Test in all cases: DTP human tumour cell line panel, 48 h
DU-145 prostate = tested on: DU-145 prostate
RXF 393 renal = tested on: RXF 393 renal
SN12C renal = tested on: SN12C renal
HL-60(TB) leukemia = tested on: HL-60(TB) leukemia
HCC-2998 colon = tested on: HCC-2998 colon
HT29 colon = tested on: HT29 colon
CCRF-CEM leukemia = tested on: CCRF-CEM leukemia
SF-539 CNS = tested on: SF-539 CNS
NCI/ADR-RES ovarian = tested on: NCI/ADR-RES ovarian
EKVX NSCLC = tested on: EKVX NSCLC
KM12 colon = tested on: KM12 colon
SK-OV-3 ovarian = tested on: SK-OV-3 ovarian
UACC-257 melanoma = tested on: UACC-257 melanoma
A549 NSCLC = tested on: A549 NSCLC
MALME-3M melanoma = tested on: MALME-3M melanoma
UACC-62 melanoma = tested on: UACC-62 melanoma
OVCAR-3 ovarian = tested on: OVCAR-3 ovarian
MDA-MB-231 breast = tested on: MDA-MB-231 breast
HCT-15 colon = tested on: HCT-15 colon
ACHN renal = tested on: ACHN renal
HOP-92 NSCLC = tested on: HOP-92 NSCLC
MDA-N = tested on: MDA-N
786-0 renal = tested on: 786-0 renal
NCI-H460 lung = tested on: NCI-H460 lung
SK-MEL-2 melanoma = tested on: SK-MEL-2 melanoma
M14 melanoma = tested on: M14 melanoma
T-47D breast = tested on: T-47D breast
OVCAR-5 ovarian = tested on: OVCAR-5 ovarian
SK-MEL-28 melanoma = tested on: SK-MEL-28 melanoma
SF-268 CNS = tested on: SF-268 CNS
NCI-H522 lung = tested on: NCI-H522 lung
HOP-62 NSCLC = tested on: HOP-62 NSCLC
SW-620 colon = tested on: SW-620 colon
OVCAR-8 ovarian = tested on: OVCAR-8 ovarian
IGROV1 ovarian = tested on: IGROV1 ovarian
HCT-116 colon = tested on: HCT-116 colon
RPMI-8226 leukemia = tested on: RPMI-8226 leukemia
NCI-H226 lung = tested on: NCI-H226 lung
MDA-MB-435 = tested on: MDA-MB-435
SF-295 CNS = tested on: SF-295 CNS
UO-31 renal = tested on: UO-31 renal
PC-3 prostate = tested on: PC-3 prostate
TK-10 renal = tested on: TK-10 renal
SK-MEL-5 melanoma = tested on: SK-MEL-5 melanoma
HS 578T breast = tested on: HS 578T breast
OVCAR-4 ovarian = tested on: OVCAR-4 ovarian
K-562 leukemia = tested on: K-562 leukemia
U251 CNS = tested on: U251 CNS
NCI-H23 lung = tested on: NCI-H23 lung
MCF7 breast = tested on: MCF7 breast
CAKI-1 renal = tested on: CAKI-1 renal
SR leukemia = tested on: SR leukemia
COLO 205 colon = tested on: COLO 205 colon
SNB-19 CNS = tested on: SNB-19 CNS
LOX IMVI melanoma = tested on: LOX IMVI melanoma
MOLT-4 leukemia = tested on: MOLT-4 leukemia
BT-549 breast = tested on: BT-549 breast
A498 renal = tested on: A498 renal

COc1cc(C=C2C(C)=NN(c3cccc(Cl)c3)C23SCC(=O)N3c2nc3ccccc3s2)ccc1O (stereo not drawn)
TGI (DU-145 prostate): > 100 µM
TGI (RXF 393 renal): 62.7 µM
TGI (SN12C renal): > 100 µM
TGI (HL-60(TB) leukemia): 26.7 µM
TGI (HCC-2998 colon): > 83.5 µM
TGI (HT29 colon): > 100 µM
TGI (CCRF-CEM leukemia): 15.8 µM
TGI (SF-539 CNS): > 58.4 µM
TGI (NCI/ADR-RES ovarian): > 96.7 µM
TGI (EKVX NSCLC): > 100 µM
TGI (KM12 colon): > 95.1 µM
TGI (SK-OV-3 ovarian): 50.8 µM
TGI (UACC-257 melanoma): > 100 µM
TGI (A549 NSCLC): > 100 µM
TGI (MALME-3M melanoma): 47.6 µM
TGI (UACC-62 melanoma): 96.1 µM
TGI (OVCAR-3 ovarian): > 80.1 µM
TGI (MDA-MB-231 breast): 54.6 µM
TGI (HCT-15 colon): > 93.6 µM
TGI (ACHN renal): 77.5 µM
TGI (HOP-92 NSCLC): 45.4 µM
TGI (MDA-N): > 100 µM
TGI (786-0 renal): > 91.5 µM
TGI (NCI-H460 lung): > 100 µM
TGI (SK-MEL-2 melanoma): 39.5 µM
TGI (M14 melanoma): > 100 µM
TGI (T-47D breast): > 100 µM
TGI (OVCAR-5 ovarian): > 100 µM
TGI (SK-MEL-28 melanoma): > 100 µM
TGI (SF-268 CNS): 57.9 µM
TGI (NCI-H522 lung): 41.5 µM
TGI (HOP-62 NSCLC): 91.5 µM
TGI (SW-620 colon): 96.9 µM
TGI (OVCAR-8 ovarian): 50.5 µM
TGI (IGROV1 ovarian): > 100 µM
TGI (HCT-116 colon): 65.3 µM
TGI (RPMI-8226 leukemia): 30.7 µM
TGI (NCI-H226 lung): > 80.7 µM
TGI (MDA-MB-435): > 100 µM
TGI (SF-295 CNS): > 100 µM
TGI (UO-31 renal): > 92.2 µM
TGI (PC-3 prostate): 58.1 µM
TGI (TK-10 renal): > 100 µM
TGI (SK-MEL-5 melanoma): 40.7 µM
TGI (HS 578T breast): 32.4 µM
TGI (OVCAR-4 ovarian): > 100 µM
TGI (K-562 leukemia): 37.2 µM
TGI (U251 CNS): 41.4 µM
TGI (NCI-H23 lung): 84.2 µM
TGI (MCF7 breast): > 100 µM
TGI (CAKI-1 renal): > 96.2 µM
TGI (SR leukemia): 29.2 µM
TGI (COLO 205 colon): 32.9 µM
TGI (SNB-19 CNS): > 100 µM
TGI (LOX IMVI melanoma): > 69 µM
TGI (MOLT-4 leukemia): 35.1 µM
TGI (BT-549 breast): 58.8 µM
TGI (A498 renal): 66 µM
